The record followed here is patent publication US20250250231A1, “NOVEL SUBSTITUTED 4-AMINO-4-OXO-BUT-2-ENYL DERIVATIVES, PROCESSES FOR THEIR PREPARATION AND THERAPEUTIC USES THEREOF” (SANOFI, priority 2022, published 2025).

Holding throughout (format): cell-based
One assay has as its system MCF7-WT cells. Briefly: In vitro anti-proliferation assay (CellTiter-Glo viability), MCF7-WT cells. The settings on record: MCF7-WT cells supplemented with 0.1 nM b-estradiol, viability on day 8, relative IC50. The protocol:
(§1) Test: In vitro anti-proliferation assay
(§2) Said test involves measuring the in vitro anti-proliferation activity of the compounds of the Table 1a.
(§3) The measurements of the anti-proliferation activities were made using MCF7-WT (ATCC), MCF7-Y537S and HCC1428-LTED cells as described hereunder.
(§4) On Day 1, MCF7-WT and MCF7-Y537S (Mol Cancer Ther. 2021 20(2):250-262), and HCC1428-LTED (J Clin Invest. 2010; 120(7):2406-2413) cells, were seeded at 2000 (WT and LTED) and 500 (Y537S) cells/well in phenol red free IMEM (Corning, 110-026-CV) with 5% Charcoal stripped-FBS and incubated overnight 37° C. and 5% CO2.
(§5) On day 2, compounds were tested in triplicate in 10-point dose response (1:3 serial dilutions with a top concentration starting 300 nM); DMSO for upper limit (negative control) and staurosporine (1 uM) for lower limit (positive control) were also included. MCF7-WT cells were then supplemented with final 0.1 nM b-estradiol. After treating the cells, the assay plates were transferred back in the incubator at 37° C. and 5% CO2.
(§6) On day 8, cell viability was measured per vendor recommendations (CellTiter-Glo, Promega). Relative IC50 measurements were calculated as follow using a 4-parameter logistic derived from Levenburg Marquardt algorithm (IDBS XL Model 205 fit within A-base).
(Cellular ATP, detected with luciferase, serves as a proxy for viable cell number.)

For a further assay, the system named is MCF7-Y537S cells. The assay can be described thus: In vitro anti-proliferation assay (CellTiter-Glo viability), MCF7-Y537S cells. The settings on record: viability on day 8, relative IC50. The protocol: as §1, §2, §3, §4, §5, §6
The test system of the next assay is HCC1428-LTED cells. The assay can be described thus: In vitro anti-proliferation assay (CellTiter-Glo viability), HCC1428-LTED cells. The settings on record: viability on day 8, relative IC50, read-out: HCC 1428 IC50. As to the method: as §1, §2, §3, §4, §5, §6

Structures are written as SMILES. Like-named read-outs stand apart in the source and are kept apart here.

By IC50 is commonly meant the point on the concentration scale where inhibition reaches its midpoint. Regarding `CN(C)C(=O)/C=C/CN1CCC(Cc2ccc(C3=C(c4ccc(Cl)cc4Cl)CCCc4cc(C(=O)O)ccc43)cc2)C1` (single isomer, unassigned; isomer 1) [Compound 18, (E)-8-(2,4-dichlorophenyl)-9-(4-((1-(4-(dimethylamino)-4-oxobut-2-en-1-yl)pyrrolidin-3-yl)methyl)phenyl)-6,7-dihydro-5H-benzo[7]annulene-3-carboxylic acid, Isomer 1], the half-maximal inhibitory concentration (IC50) in the assay on MCF7-WT cells stood at 26 nM; with MCF7-Y537S cells it was 59 nM; in the assay with HCC1428-LTED cells (Homo sapiens, HCC1428, 192 h), 0.3 nM.
`CN(C)C(=O)/C=C/CN1CCC(Cc2ccc(C3=C(c4ccc(Cl)cc4Cl)CCCc4cc(C(=O)O)ccc43)cc2)C1` (single isomer, unassigned; isomer 2) [Compound 19, (E)-8-(2,4-dichlorophenyl)-9-(4-((1-(4-(dimethylamino)-4-oxobut-2-en-1-yl)pyrrolidin-3-yl)methyl)phenyl)-6,7-dihydro-5H-benzo[7]annulene-3-carboxylic acid, Isomer 2]: the IC50 is 9 nM with MCF7-WT cells, 20.7 nM in the assay on MCF7-Y537S cells and 0.2 nM with HCC1428-LTED cells.
In the case of `CN(C)C(=O)/C=C/CN1CC[C@H](Oc2ccc(C3=C(c4ccc(Cl)cc4Cl)CCCc4cc(C(=O)O)ccc43)cc2)C1` [Compound 1, (S,E)-8-(2,4-dichlorophenyl)-9-(4-((1-(4-(dimethylamino)-4-oxobut-2-en-1-yl)pyrrolidin-3-yl)oxy)phenyl)-6,7-dihydro-5H-benzo[7]annulene-3-carboxylic acid], the IC50 in the assay on MCF7-WT cells (Homo sapiens, MCF7, 192 h) is 14 nM; in the assay on MCF7-Y537S cells (Homo sapiens, MCF7, 192 h), at least 500 nM; in the assay with HCC1428-LTED cells (Homo sapiens, HCC1428, 192 h), 0.7 nM.
For `CN(C)C(=O)/C=C/CN1CC[C@H](Oc2ccc(C3=C(c4ccc(F)cc4Cl)CCCc4cc(C(=O)O)ccc43)cc2)C1` [Compound 2, (S,E)-8-(2-chloro-4-fluorophenyl)-9-(4-((1-(4-(dimethylamino)-4-oxobut-2-en-1-yl)pyrrolidin-3-yl)oxy)phenyl)-6,7-dihydro-5H-benzo[7]annulene-3-carboxylic acid], the half-inhibitory concentration (IC50) is 10 nM in the assay on MCF7-WT cells (Homo sapiens, MCF7, 192 h); at least 500 nM in the assay on MCF7-Y537S cells (Homo sapiens, MCF7, 192 h); 0.4 nM with HCC1428-LTED cells (Homo sapiens, HCC1428, 192 h).
In the same order, the values of `CN(C)C(=O)/C=C/CN1CC[C@H](Oc2ccc(C3=C(c4ccc(Cl)cc4F)CCCc4cc(C(=O)O)ccc43)cc2)C1` [Compound 3, (S,E)-8-(4-chloro-2-fluorophenyl)-9-(4-((1-(4-(dimethylamino)-4-oxobut-2-en-1-yl)pyrrolidin-3-yl)oxy)phenyl)-6,7-dihydro-5H-benzo[7]annulene-3-carboxylic acid] are 24 nM, 167 nM and 0.7 nM.
On to `CN(C)C(=O)/C=C/CN1CC[C@H](Oc2ccc(C3=C(c4cccc(F)c4Cl)CCCc4cc(C(=O)O)ccc43)cc2)C1` [Compound 4, (S,E)-8-(2-chloro-3-fluorophenyl)-9-(4-((1-(4-(dimethylamino)-4-oxobut-2-en-1-yl)pyrrolidin-3-yl)oxy)phenyl)-6,7-dihydro-5H-benzo[7]annulene-3-carboxylic acid], for which the IC50 was 22 nM with MCF7-WT cells (Homo sapiens, MCF7, 192 h); at least 500 nM in the assay with MCF7-Y537S cells (Homo sapiens, MCF7, 192 h); 2 nM in the assay with HCC1428-LTED cells (Homo sapiens, HCC1428, 192 h).
In the same order, the values of `Cc1ccc(C2=C(c3ccc(O[C@H]4CCN(C/C=C/C(=O)N(C)C)C4)cc3)c3ccc(C(=O)O)cc3CCC2)c(F)c1` [Compound 5, (S,E)-9-(4-((1-(4-(dimethylamino)-4-oxobut-2-en-1-yl)pyrrolidin-3-yl)oxy)phenyl)-8-(2-fluoro-4-methylphenyl)-6,7-dihydro-5H-benzo[7]annulene-3-carboxylic acid] are 3 nM, 76 nM and 0.2 nM.
Consider `CN(C)C(=O)/C=C/CN1CC[C@H](Oc2ccc(C3=C(c4ccccc4)CCCc4cc(C(=O)O)ccc43)cc2)C1` [Compound 6, (S,E)-9-(4-((1-(4-(dimethylamino)-4-oxobut-2-en-1-yl)pyrrolidin-3-yl)oxy)phenyl)-8-phenyl-6,7-dihydro-5H-benzo[7]annulene-3-carboxylic acid], for which the IC50 in the assay on MCF7-WT cells (Homo sapiens, MCF7, 192 h) was 14 nM; with MCF7-Y537S cells (Homo sapiens, MCF7, 192 h) it was at least 500 nM; with HCC1428-LTED cells (Homo sapiens, HCC1428, 192 h) it was 0.7 nM.
Regarding `Cc1ccc(C2=C(c3ccc(O[C@H]4CCN(C/C=C/C(=O)N(C)C)C4)cc3)c3ccc(C(=O)O)cc3CCC2)cc1Cl` [Compound 7, (S,E)-8-(3-chloro-4-methylphenyl)-9-(4-((1-(4-(dimethylamino)-4-oxobut-2-en-1-yl)pyrrolidin-3-yl)oxy)phenyl)-6,7-dihydro-5H-benzo[7]annulene-3-carboxylic acid], the IC50 in the assay on MCF7-WT cells (Homo sapiens, MCF7, 192 h) was 28 nM; in the assay on MCF7-Y537S cells (Homo sapiens, MCF7, 192 h), at least 500 nM; in the assay on HCC1428-LTED cells (Homo sapiens, HCC1428, 192 h), 2 nM.
In the case of `Cc1ccc(C2=C(c3ccc(O[C@H]4CCN(C/C=C/C(=O)N(C)C)C4)cc3)c3ccc(C(=O)O)cc3CCC2)c(C)c1` [Compound 8, (S,E)-9-(4-((1-(4-(dimethylamino)-4-oxobut-2-en-1-yl)pyrrolidin-3-yl)oxy)phenyl)-8-(2,4-dimethylphenyl)-6,7-dihydro-5H-benzo[7]annulene-3-carboxylic acid], the 50% inhibitory concentration (IC50) with MCF7-WT cells (Homo sapiens, MCF7, 192 h) was found to be 3 nM; in the assay on MCF7-Y537S cells (Homo sapiens, MCF7, 192 h) it was 87 nM; in the assay with HCC1428-LTED cells (Homo sapiens, HCC1428, 192 h), 0.2 nM.
In the same order, the values of `CN(C)C(=O)/C=C/CN1CC[C@H](Oc2ccc(C3=C(c4ccccc4Cl)CCCc4cc(C(=O)O)ccc43)cc2)C1` [Compound 9, (S,E)-8-(2-chlorophenyl)-9-(4-((1-(4-(dimethylamino)-4-oxobut-2-en-1-yl)pyrrolidin-3-yl)oxy)phenyl)-6,7-dihydro-5H-benzo[7]annulene-3-carboxylic acid] are 4 nM, 87 nM and 0.2 nM.
In the same order, the values of `COc1ccc(C2=C(c3ccc(O[C@H]4CCN(C/C=C/C(=O)N(C)C)C4)cc3)c3ccc(C(=O)O)cc3CCC2)c(F)n1` [Compound 10, (S,E)-9-(4-((1-(4-(dimethylamino)-4-oxobut-2-en-1-yl)pyrrolidin-3-yl)oxy)phenyl)-8-(2-fluoro-6-methoxypyridin-3-yl)-6,7-dihydro-5H-benzo[7]annulene-3-carboxylic acid] are 8 nM, at least 500 nM and 0.3 nM.
In the same order, the values of `Cc1ccc(C2=C(c3ccc(O[C@H]4CCN(C/C=C/C(=O)N(C)C)C4)cc3)c3ccc(C(=O)O)cc3CCC2)c(Cl)c1` [Compound 11, (S,E)-8-(2-chloro-4-methylphenyl)-9-(4-((1-(4-(dimethylamino)-4-oxobut-2-en-1-yl)pyrrolidin-3-yl)oxy)phenyl)-6,7-dihydro-5H-benzo[7]annulene-3-carboxylic acid] are 2 nM, 204 nM and 0.1 nM.
Turning to `CN(C)C(=O)/C=C/CN1CC(Oc2ccc(C3=C(c4ccc(Cl)cc4Cl)CCCc4cc(C(=O)O)ccc43)cc2)C1` [Compound 12, (E)-8-(2,4-dichlorophenyl)-9-(4-((1-(4-(dimethylamino)-4-oxobut-2-en-1-yl)azetidin-3-yl)oxy)phenyl)-6,7-dihydro-5H-benzo[7]annulene-3-carboxylic acid], the half-inhibitory concentration (IC50) in the assay with MCF7-WT cells (Homo sapiens, MCF7, 192 h) is 126 nM; in the assay on MCF7-Y537S cells (Homo sapiens, MCF7, 192 h) it was at least 500 nM; in the assay with HCC1428-LTED cells (Homo sapiens, HCC1428, 192 h) it was 3 nM.
In the same order, the values of `CN(C)C(=O)/C=C/CN1CC(Cc2ccc(C3=C(c4ccc(Cl)cc4Cl)CCCc4cc(C(=O)O)ccc43)cc2)C1` [Compound 13, (E)-8-(2,4-dichlorophenyl)-9-(4-((1-(4-(dimethylamino)-4-oxobut-2-en-1-yl)azetidin-3-yl)methyl)phenyl)-6,7-dihydro-5H-benzo[7]annulene-3-carboxylic acid compound with 2,2,2-trifluoroacetic acid (1:1)] are 3 nM, 9 nM and 0.01 nM.
In the same order, the values of `CN(C)C(=O)/C=C/CN1CC(=Cc2ccc(C3=C(c4ccc(Cl)cc4Cl)CCCc4cc(C(=O)O)ccc43)cc2)C1` [Compound 14, (E)-8-(2,4-dichlorophenyl)-9-(4-((1-(4-(dimethylamino)-4-oxobut-2-en-1-yl)azetidin-3-ylidene)methyl)phenyl)-6,7-dihydro-5H-benzo[7]annulene-3-carboxylic acid] are 101 nM, 0.4 nM and 0.4 nM.
For `CN(C)C(=O)/C=C/CN1CC[C@@H](Oc2ccc(C3=C(c4ccc(Cl)cc4Cl)CCCc4cc(C(=O)O)ccc43)cc2)C1` [Compound 15, (R,E)-8-(2,4-dichlorophenyl)-9-(4-((1-(4-(dimethylamino)-4-oxobut-2-en-1-yl)pyrrolidin-3-yl)oxy)phenyl)-6,7-dihydro-5H-benzo[7]annulene-3-carboxylic acid], the half-maximal inhibitory concentration (IC50) in the assay with MCF7-WT cells (Homo sapiens, MCF7, 192 h) amounted to 53 nM; with MCF7-Y537S cells (Homo sapiens, MCF7, 192 h) it was 186 nM; with HCC1428-LTED cells (Homo sapiens, HCC1428, 192 h) it was 5 nM.
